Here are results for three compounds from ChEMBL document CHEMBL1201862, “PubChem BioAssay data set” (2004).

For one experiment, the system named is Streptococcus. Description: GAS UMAA2166 growth inhibition – luminescence, BacTiterGlo, counter-screen for streptokinase expression inhibitor project, dose response (AID 1915).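 Note: potency for reduction of bacterial viability or growth.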 In kind it is functional, organism-based. (In general: A counterscreen serves to expose hits that act by an unwanted route or on another target.)
The next experiment has as its system BJ. The experiment can be described thus: BJ-TERT fibroblast viability loss – cell-based, RAS-independent, luminescence, dose response (AID 1933). It is filed as functional. Particulars: Homo sapiens.
The nature of experiment [1]: NIH3T3 cell viability loss – ATP luminescence, mouse fibroblasts, counter-screen, dose response (AID 2010).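 Note: cells exposed to compound for about 90 hours before reading.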 It is filed as functional, cell-based.
For experiment [2], the target named is Dual specificity tyrosine-phosphorylation-regulated kinase 4 (Homo sapiens, UniProt Q9NR20). In kind it is functional.
The target of experiment [3] is Protein kinase C gamma type (Homo sapiens, UniProt P05129). It is filed as functional.
For experiment [4], the target named is Cell division cycle 7-related protein kinase (Homo sapiens, UniProt O00311). In kind it is functional.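 Note: value obtained from a kinome-wide kinase panel.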
Experiment [5] deals with T1, Serine/threonine-protein kinase Chk1 (Homo sapiens, UniProt O14757).
T1 sequence (O14757 whole entry): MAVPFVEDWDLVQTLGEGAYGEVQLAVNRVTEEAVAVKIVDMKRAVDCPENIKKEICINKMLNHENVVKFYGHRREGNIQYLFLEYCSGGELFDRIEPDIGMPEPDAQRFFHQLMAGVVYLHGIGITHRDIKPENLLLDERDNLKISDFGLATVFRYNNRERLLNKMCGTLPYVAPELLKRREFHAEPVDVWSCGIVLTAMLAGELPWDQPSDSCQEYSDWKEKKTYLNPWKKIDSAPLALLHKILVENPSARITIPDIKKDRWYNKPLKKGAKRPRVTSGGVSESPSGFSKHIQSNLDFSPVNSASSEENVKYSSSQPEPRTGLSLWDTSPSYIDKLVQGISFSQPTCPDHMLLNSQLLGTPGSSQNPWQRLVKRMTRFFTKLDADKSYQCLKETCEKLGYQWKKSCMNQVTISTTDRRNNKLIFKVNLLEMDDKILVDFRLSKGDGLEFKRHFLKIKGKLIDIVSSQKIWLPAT
In kind it is functional.

Experiment [6] deals with Casein kinase I isoform alpha (Homo sapiens, UniProt P48729). In kind it is functional.
The target in experiment [7] is Calcium/calmodulin-dependent protein kinase type II subunit gamma (Homo sapiens, UniProt Q13555). In kind it is functional.
The target of experiment [8] is Ribosomal protein S6 kinase alpha-3 (Homo sapiens, UniProt P51812). It is filed as functional.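 Note: measured within a kinome-wide profiling panel.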
Experiment [9] concerns the target Heat shock protein HSP 90-alpha (Homo sapiens, UniProt P07900). In kind it is functional, organism-based.
The next experiment deals with T2, Hexokinase HKDC1 (Homo sapiens, UniProt Q2TB90).
T2 sequence (Q2TB90 whole entry): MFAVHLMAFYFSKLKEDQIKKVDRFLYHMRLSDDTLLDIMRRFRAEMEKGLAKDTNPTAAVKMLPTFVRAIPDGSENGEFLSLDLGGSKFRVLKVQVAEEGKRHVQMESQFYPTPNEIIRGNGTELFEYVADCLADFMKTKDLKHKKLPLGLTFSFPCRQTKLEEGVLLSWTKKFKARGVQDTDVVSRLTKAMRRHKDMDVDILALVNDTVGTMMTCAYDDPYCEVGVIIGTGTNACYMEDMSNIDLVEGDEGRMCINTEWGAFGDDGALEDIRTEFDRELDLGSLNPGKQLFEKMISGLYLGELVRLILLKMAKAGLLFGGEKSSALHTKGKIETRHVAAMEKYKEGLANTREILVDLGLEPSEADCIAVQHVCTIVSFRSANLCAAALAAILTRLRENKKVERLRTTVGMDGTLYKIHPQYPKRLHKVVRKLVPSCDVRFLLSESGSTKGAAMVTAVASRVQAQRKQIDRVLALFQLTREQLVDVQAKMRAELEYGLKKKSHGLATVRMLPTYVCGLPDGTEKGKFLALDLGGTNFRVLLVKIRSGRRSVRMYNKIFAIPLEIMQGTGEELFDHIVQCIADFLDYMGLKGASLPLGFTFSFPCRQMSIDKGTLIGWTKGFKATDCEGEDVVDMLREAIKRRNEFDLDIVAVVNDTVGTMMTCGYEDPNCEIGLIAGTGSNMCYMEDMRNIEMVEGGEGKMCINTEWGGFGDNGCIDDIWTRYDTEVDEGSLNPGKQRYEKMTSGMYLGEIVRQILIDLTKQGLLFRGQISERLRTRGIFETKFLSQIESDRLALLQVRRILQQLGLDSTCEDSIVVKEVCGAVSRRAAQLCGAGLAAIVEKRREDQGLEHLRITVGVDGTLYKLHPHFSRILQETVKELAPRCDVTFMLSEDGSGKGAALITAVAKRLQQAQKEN
The experiment can be described thus: inhibition of HKDC1 glucose phosphorylation – biochemical, W721R variant, dose response (AID 504729). In kind it is functional.

The next experiment has as its target T3, Streptokinase A (Streptococcus pyogenes serotype M1, UniProt P10520).
T3 sequence (P10520 whole entry): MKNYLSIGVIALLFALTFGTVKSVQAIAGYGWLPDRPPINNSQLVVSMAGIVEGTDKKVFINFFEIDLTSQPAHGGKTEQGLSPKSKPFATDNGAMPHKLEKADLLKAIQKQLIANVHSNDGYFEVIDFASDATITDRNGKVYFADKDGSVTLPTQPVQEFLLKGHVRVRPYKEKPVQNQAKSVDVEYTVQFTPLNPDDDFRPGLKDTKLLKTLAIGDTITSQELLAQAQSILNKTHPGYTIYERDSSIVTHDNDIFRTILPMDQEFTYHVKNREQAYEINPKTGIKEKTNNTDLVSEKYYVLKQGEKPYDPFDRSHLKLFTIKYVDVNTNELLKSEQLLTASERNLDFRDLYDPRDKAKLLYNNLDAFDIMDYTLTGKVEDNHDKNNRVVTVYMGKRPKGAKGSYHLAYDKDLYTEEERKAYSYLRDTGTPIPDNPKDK
Description: viability-normalized secreted streptokinase activity reduction – plasminogen activation absorbance, OD405, dose response (AID 1914).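 Note: secreted streptokinase activity via plasminogen activation per viability signal from cell pellet.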 In kind it is functional, Streptococcus pyogenes M1 GAS.

The target in experiment [10] is T4, Tyrosyl-DNA phosphodiesterase 2 (Homo sapiens, UniProt O95551).
T4 sequence (O95551 whole entry): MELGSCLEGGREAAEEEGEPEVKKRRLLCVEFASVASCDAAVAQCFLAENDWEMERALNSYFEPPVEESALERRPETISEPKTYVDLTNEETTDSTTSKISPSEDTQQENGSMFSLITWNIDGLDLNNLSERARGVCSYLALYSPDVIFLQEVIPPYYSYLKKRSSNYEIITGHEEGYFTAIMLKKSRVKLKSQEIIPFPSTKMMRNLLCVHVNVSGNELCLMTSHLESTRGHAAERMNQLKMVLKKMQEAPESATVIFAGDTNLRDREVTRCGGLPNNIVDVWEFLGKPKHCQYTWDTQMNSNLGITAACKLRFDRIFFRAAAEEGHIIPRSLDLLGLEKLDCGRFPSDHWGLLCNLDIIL
The experiment can be described thus: potency against TDP2 phosphodiesterase activity – biochemical, epi absorbance, IC50, dose response (AID 743297).

Experiment [11] deals with Sphingosine 1-phosphate receptor 1 (Homo sapiens, UniProt P21453). In kind it is functional.

Structures are written as SMILES. Activity calls are given as the source filed them.

Casein kinase I isoform alpha, sequence (P48729 whole entry, canonical isoform): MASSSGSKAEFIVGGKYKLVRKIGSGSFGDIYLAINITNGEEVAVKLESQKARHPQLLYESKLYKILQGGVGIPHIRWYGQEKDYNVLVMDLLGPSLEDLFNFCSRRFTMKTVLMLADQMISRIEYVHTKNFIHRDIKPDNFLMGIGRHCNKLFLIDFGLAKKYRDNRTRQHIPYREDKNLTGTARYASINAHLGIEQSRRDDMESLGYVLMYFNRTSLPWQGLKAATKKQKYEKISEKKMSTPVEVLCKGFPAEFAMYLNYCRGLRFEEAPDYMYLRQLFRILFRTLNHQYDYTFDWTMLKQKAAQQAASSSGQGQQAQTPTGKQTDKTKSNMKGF
Ribosomal protein S6 kinase alpha-3, sequence (P51812 whole entry): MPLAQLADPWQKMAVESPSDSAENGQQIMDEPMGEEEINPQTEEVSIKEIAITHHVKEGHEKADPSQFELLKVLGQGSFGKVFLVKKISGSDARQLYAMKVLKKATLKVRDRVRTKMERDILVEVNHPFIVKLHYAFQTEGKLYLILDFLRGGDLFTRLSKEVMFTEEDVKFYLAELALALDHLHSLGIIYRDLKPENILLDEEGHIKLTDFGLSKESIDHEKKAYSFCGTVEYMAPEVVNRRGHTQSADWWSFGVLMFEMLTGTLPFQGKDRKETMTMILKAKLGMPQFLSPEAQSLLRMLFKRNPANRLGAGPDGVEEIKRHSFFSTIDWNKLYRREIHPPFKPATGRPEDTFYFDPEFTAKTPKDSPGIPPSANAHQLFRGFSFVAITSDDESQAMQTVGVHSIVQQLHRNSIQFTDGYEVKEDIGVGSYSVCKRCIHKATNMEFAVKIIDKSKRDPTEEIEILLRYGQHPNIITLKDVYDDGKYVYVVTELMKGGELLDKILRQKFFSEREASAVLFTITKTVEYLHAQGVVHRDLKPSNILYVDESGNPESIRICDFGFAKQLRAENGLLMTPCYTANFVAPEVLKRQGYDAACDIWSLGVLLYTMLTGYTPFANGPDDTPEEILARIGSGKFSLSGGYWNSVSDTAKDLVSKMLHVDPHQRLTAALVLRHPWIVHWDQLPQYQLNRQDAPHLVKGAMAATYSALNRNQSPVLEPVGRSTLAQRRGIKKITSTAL
Dual specificity tyrosine-phosphorylation-regulated kinase 4, sequence (Q9NR20 whole entry): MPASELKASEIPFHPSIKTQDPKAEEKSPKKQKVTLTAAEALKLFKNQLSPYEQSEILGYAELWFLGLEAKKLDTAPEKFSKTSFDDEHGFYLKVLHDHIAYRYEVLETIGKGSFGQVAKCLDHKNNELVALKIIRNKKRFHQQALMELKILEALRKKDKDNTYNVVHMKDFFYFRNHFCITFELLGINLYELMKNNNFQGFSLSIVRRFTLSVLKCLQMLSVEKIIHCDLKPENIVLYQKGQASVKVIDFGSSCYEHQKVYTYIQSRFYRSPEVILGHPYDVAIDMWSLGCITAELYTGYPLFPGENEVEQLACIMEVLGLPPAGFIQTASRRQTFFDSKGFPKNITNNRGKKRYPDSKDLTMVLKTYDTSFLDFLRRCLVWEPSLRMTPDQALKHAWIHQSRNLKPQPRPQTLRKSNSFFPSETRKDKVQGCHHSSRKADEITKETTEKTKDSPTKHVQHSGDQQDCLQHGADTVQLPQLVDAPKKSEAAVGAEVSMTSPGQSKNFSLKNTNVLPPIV
Sphingosine 1-phosphate receptor 1, sequence (P21453 whole entry): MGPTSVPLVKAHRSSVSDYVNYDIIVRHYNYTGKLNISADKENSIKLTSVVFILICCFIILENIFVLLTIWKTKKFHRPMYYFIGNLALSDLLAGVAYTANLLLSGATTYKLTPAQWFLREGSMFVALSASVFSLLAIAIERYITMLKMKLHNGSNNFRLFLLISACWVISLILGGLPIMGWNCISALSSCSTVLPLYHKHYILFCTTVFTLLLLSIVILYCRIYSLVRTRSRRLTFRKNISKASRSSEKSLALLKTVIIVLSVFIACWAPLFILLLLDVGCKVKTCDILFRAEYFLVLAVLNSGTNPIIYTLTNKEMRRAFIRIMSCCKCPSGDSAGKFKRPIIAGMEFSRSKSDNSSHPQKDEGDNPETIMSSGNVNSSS
Calcium/calmodulin-dependent protein kinase type II subunit gamma, sequence (Q13555 whole entry): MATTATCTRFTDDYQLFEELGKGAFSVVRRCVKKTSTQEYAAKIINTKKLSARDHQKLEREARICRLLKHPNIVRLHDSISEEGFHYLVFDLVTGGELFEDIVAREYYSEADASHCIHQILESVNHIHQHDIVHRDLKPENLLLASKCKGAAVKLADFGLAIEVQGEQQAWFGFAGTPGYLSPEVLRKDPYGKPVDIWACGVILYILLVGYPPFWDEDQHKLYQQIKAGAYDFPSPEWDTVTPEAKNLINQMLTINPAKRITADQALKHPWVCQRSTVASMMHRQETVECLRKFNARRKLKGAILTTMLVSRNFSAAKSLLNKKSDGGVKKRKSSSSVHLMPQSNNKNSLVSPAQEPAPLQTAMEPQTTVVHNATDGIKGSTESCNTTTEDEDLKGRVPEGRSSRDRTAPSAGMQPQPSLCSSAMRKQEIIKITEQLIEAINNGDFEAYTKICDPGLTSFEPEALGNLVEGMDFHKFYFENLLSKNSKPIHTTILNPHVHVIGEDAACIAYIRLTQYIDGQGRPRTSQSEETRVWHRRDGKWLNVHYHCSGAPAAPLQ
Cell division cycle 7-related protein kinase, sequence (O00311 whole entry): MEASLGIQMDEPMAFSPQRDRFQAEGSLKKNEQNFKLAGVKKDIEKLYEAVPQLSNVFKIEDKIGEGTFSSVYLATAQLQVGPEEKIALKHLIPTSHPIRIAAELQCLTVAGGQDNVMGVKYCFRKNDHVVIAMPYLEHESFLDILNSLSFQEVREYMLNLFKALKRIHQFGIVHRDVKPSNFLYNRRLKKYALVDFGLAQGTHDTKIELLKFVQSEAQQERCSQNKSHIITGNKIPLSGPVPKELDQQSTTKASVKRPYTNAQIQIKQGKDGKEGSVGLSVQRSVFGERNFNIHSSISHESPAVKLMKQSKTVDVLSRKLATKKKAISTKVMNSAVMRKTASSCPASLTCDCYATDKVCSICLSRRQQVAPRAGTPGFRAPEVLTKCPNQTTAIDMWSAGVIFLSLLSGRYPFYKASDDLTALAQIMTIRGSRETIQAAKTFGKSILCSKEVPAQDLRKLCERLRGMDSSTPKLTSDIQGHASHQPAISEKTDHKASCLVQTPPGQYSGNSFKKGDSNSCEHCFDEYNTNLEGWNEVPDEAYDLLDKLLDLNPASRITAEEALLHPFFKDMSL

Turning to `Cc1ccc(NC2=C/C(=N\S(=O)(=O)c3cccs3)c3ccccc3C2=O)c(C)c1`, the EC50 (usually the concentration giving half of the maximal effect) is 3.08 µM (active) in the experiment on Streptococcus, 2.51 µM (active) in the experiment on BJ and < 6 µM (inconclusive) in [1].
As for `O=C1Nc2ccc3ncsc3c2C1=CNc1ccc(S(=O)(=O)Nc2ccccn2)cc1`, the Ki (in general, the dissociation constant of the complex between target and ligand, obtained from inhibition or displacement) is 3.16 µM (active) in experiment [2]; 1.26 µM (active) in experiment [3]; 0.126 µM (active) in experiment [4]; 0.158 µM (active) in experiment [5]; 0.794 µM (active) in experiment [6]; 0.2 µM (active) in [7]. The Ki in experiment [8] is 0.0398 µM (active).
As for `CC(=O)N(C1=C(Cl)C(=O)c2ccccc2C1=O)C1CCCCC1`, the figures for the 50% effective concentration (EC50) (with Streptococcus; on Streptokinase A; in experiment [1]) were > 150 µM (not active), > 150 µM (not active) and 3.26 µM (active), respectively. The AC50 – broadly, the concentration giving half of the maximal activity seen – in experiment [9] is 0.524 µM (active). The IC50 (in general, the midpoint of a concentration-inhibition curve) at Hexokinase HKDC1 is 7.15 µM (active); in [10] it was 19.5 µM (inactive); in [11], 9.5 µM (active).
